Reference: US12240854B2, “TRAF 6 inhibitors” (Helmholtz Zentrum München - Deutsches Forschungszentrum für …, priority 2018, dated 2025)
Entries after “also recorded” stand apart in the source; their conditions may differ.

Columns and labels:
[1] = biological target: T1, hERG (Homo sapiens, UniProt Q12809); assay: ADME: hERG predictor assay; assay type: in vitro ADME
T1 construct: Bienta Enamine Biology Services
Procedure: (§1) All ADME (plasma stability, plasma protein binding, microsomal stability, Log D, Caco-2 assay, CYP450 inhibition and hERG predictor assay) as well as pharmacokinetic studies (Tmax, Cmax, AUC0-240min, Mean Residence Time, Elimination half life, Elimination rate constant, Volume of Distribution and Clearance) of C25-140 (compound 3) were conducted by Bienta Enamine Biology Services of Bienta/Enamine Ltd.

[2] = tested on: TCR target genes IL-2 and TNFα in Jurkat T-cells; assay: mRNA expression (qRT-PCR) in Jurkat T-cells; assay type: cell-based, human; conditions: PMA/Ionomycin
Procedure: For MEF cells, 1.2×10^5 cells per sample were seeded, treated with compound for 6 hours and stimulated with either IL-1β or TNFα for 60 minutes. Jurkat T-cells and primary mouse CD4^+ T-cells were seeded at 2×10^5 cells per sample, also treated with compound for 6 hours and stimulated with PMA/lonomycin for 3 hours. RNA was isolated according to the manufacturer's protocol of the Qiagen RNeasy Kit (MEF cells) or the STRATEC INVITRAP® SPIN UNIVERSAL RNA MINI KIT (Jurkat T-cells). The isolation of mRNA from […] white adipose tissue from DIO mice was performed using TRIzol® Reagent according to manufacturer's instruction. To clear the isolated RNA from genomic DNA, samples (up to 5 μg RNA) were treated with RQ1 RNase-Free DNaseI (Promega) as described in the technical manual. For the reverse transcription of RNA into cDNA, the DNaseI digested RNA samples were processed using the SuperScript III First Strand cDNA Synthesis System (Invitrogen/ThermoFisher Scientific) following the manufacturer's protocol. […] For quantification of cDNA in the samples, the LightCylcer480 (Roche) and the KAPA SYBR FAST qPCR Kit were used. For relative quantification, the ΔΔCp method first described by Pfaffl (Pfaffl, M. W., A new mathematical model for relative quantification in real-time RT-PCR. Nucleic Acids Res, 2001. 29(9): p. e45) was applied.

[3] = tested on: CYP450; assay: ADME: CYP450 inhibition; assay type: in vitro ADME
Procedure: as §1

[4] = biological target: T2, Interaction of Ubc13 with Uev1a (Homo sapiens, UniProt P61088+Q13404); assay: Ubc13-Uev1a interaction (FIG. 2E); assay type: binding
T2 construct: GST (N); His; made in house
T2 sequence (P61088 with tags, fused parts or gaps): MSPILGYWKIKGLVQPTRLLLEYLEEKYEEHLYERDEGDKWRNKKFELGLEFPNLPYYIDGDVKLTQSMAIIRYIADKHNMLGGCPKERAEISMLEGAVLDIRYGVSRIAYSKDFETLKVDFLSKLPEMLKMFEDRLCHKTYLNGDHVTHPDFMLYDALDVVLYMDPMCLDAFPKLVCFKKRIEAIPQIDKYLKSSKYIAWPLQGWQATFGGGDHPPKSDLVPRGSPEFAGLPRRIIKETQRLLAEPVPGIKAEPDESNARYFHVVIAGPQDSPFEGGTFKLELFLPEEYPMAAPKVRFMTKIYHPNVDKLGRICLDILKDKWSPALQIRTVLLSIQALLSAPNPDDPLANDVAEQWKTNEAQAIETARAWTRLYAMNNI
T2 sequence (Q13404 with tags, fused parts or gaps isoform Q13404-7): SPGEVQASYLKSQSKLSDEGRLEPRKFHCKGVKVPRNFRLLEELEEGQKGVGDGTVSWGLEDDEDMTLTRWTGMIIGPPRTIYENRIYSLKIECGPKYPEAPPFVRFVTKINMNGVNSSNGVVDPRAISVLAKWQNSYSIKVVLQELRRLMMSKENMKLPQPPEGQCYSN

[5] = Pharmacokinetic studies (IV, PO, IP); assay type: in vivo
Procedure: as §1
The inventors also tested the pharmacokinetics (PK) of C25-140 after intravenous (IV), peroral (PO) and intraperitoneal (IP) injection of each 10 mg/kg compound. All the analyzed data are summarized in FIG. 9B and the concentration/time-course graph for IP administration is shown in FIG. 9C.

[6] = tested on: TRAF6 auto-ubiquitination in MEF cells; assay: Immunoprecipitation of TRAF6 for endogenous ubiquitination, MEF cells; assay type: cell-based, mouse
Procedure: 2.5×10^6 MEF cells were seeded, treated with compound for 6 hours and stimulated with IL-1β (3.5 ng/mL) for 10 minutes. Cells were lysed in Co-IP lysis buffer containing 1% SDS to eliminate all cellular interactions. After cell lysis and removal of input samples, the samples were diluted to 0.1% SDS and incubated with 5 μL TRAF6 antibody EP591Y (Abcam) and immunoprecipitated with Protein-G-Sepharose beads. After washing of the beads in Co-IP wash buffer, TRAF6 protein was eluted and levels of TRAF6 ubiquitination were detected by Western Blot analysis.

[7] = tested on: HBL1 (ABC-DLBCL-MYD88 L265P); assay: Cell viability in DLBCL, HBL1; assay type: cell-based; conditions: HBL1, 30 μM, added at day 0, 4 and 8, 9 days
Procedure: (§2) To determine the effects of C25-140 on MYD88-dependent ABC-DLBCL, we chose the HBL1 (ABC-DLBCL-MYD88 L265P), U2932 (ABC DLBCL-MYD88 wt) and BJAB (GCB DLBCL) cell lines. 1×10^6 cells of each cell line was seeded in 5 ml and treated with 30 μM compound C25-140 (compound 3) or DMSO. The entire experiment was carried out for 9 days. Every day 500 μl were taken and viable cell number was acquired using the ViCEII cell counter (Beckmann Coulter). At days 4 and 8 of the experiment the volume was again adjusted to 5 ml and samples were supplemented with 30 μM compound C25-140 or DMSO. This process was necessary to ensure linear proliferation of DMSO treated cells. All curves of C25-140 treated samples were referred to the corresponding DMSO treated controls.

[8] = tested on: Jurkat T-cells; assay: Cell cycle assessment (propidium iodide), Jurkat T-cells; assay type: cell-based, human; conditions: 24 hours and 72 hours
Procedure: For cell cycle staining, cells were seeded at 2×10^5 cells per sample and treated with compound or DMSO. After the indicated incubation time (24 or 72 hours), cells were fixed in 100% Ethanol and subsequently stained with the Propidium Iodide staining solution (0.1% Triton X-100; 20 μg/ml Propidium Iodide; 200 μg/ml RNAse A in PBS) for 40 min in the dark. The Propidium Iodide fluorescence was collected using the Attune Flow Cytometer (Thermo Fisher Scientific). Analysis was performed using the Single Cell analysis software FlowJo.

[9] = tested on: U2932 (ABC DLBCL-MYD88 wt); assay: Cell viability in DLBCL, U2932; assay type: cell-based; conditions: U2932, 30 μM, 9 days
Procedure: as §2

[10] = biological target: T3, TRAF6-Ubc13 binding in HEK293T cells (Homo sapiens, UniProt Q9Y4K3); assay: Co-immunoprecipitation of HA-TRAF6 and Ubc13 in HEK 293T cells; assay type: cell-based
T3 construct: RING-Zincfinger1 (RZ1) domain (residues 50-159) of human TRAF6 wildtype; expressed in transfected cells; host or cells: HEK 293T
T3 sequence (Q9Y4K3 50-159): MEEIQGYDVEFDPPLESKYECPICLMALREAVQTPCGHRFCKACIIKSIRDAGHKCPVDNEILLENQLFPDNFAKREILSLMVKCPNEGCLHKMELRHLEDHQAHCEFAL
Procedure: To study the interaction of TRAF6 and Ubc13 in cells, 1×10^6 293T cells were seeded and after 18 hours cells were transfected with 1 μg pEF-HA empty or pEF-HA-TRAF6 RZ1 plasmid using the X-tremeGENE HP DNA transfection reagent (Roche). 6 hours upon transfection, cells were treated with compound or DMSO. After 42 hours further incubation, cells were harvested in Co-IP lysis buffer and HA-TRAF6 was immunoprecipitated with anti-HA affinity matrix (Roche). Binding of Ubc13 to TRAF6 was examined in Western Blot analysis.

T1 sequence (Q12809 whole entry): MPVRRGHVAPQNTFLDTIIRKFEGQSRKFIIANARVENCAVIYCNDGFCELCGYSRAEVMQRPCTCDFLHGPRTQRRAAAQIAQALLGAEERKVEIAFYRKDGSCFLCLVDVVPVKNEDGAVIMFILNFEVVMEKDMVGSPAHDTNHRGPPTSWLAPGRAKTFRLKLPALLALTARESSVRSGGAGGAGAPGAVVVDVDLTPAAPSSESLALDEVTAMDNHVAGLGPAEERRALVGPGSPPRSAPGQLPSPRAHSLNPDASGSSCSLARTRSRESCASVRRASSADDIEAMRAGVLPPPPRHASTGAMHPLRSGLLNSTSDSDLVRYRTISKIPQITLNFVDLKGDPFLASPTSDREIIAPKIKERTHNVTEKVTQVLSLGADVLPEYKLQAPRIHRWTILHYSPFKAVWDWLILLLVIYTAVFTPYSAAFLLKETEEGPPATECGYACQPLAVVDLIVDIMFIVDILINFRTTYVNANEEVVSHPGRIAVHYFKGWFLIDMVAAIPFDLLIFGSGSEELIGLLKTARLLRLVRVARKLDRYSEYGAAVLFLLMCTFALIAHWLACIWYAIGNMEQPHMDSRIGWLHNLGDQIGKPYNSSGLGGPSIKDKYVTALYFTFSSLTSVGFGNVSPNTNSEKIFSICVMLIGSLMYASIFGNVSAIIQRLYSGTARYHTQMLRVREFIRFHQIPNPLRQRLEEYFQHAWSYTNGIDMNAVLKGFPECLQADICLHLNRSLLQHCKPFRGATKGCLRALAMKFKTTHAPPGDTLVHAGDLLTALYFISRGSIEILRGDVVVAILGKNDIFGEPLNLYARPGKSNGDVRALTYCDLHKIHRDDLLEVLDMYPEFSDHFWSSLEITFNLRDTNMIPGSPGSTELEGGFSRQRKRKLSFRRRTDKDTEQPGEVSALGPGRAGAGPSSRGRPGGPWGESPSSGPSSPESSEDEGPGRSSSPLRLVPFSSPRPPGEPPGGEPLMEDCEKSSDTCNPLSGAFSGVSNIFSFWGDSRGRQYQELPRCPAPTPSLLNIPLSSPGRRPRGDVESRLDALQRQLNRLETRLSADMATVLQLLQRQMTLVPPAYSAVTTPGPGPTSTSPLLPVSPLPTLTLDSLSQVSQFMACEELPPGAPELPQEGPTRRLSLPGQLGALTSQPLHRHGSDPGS

**Q.** Which hERG inhibition [1] does the source give for `Cc1nn(-c2ccc3nnc(C)n3n2)c(C)c1CCC(=O)N1CCC(Cc2ccccc2)CC1` [Example C25-140, 1-(4-Benzylpiperidin-1-yl)-3-(3,5-dimethyl-1-(3-methyl-[1,2,4]-triazolo-[4,3-b]-pyridazin-6-yl)-1H-pyrazol-4-yl)-propan-1-one] here?
**A.** does not very much inhibit hERG

**Q.** And the “mRNA levels of TCR target genes IL-2 and TNFα” value [2]?
**A.** reduced; also recorded: dose-dependently decreased

**Q.** And the CYP450 inhibition [3]?
**A.** some inhibitory potential on selected CYPs

**Q.** And the “interaction of Ubc13 with Uev1a” value [4]?
**A.** did not affect binding; also recorded: not affected

**Q.** And the “adverse effects on animals during the PK studies” value ([5]; 10 mg/kg IV, PO, IP)?
**A.** no obvious adverse effects

**Q.** And the “in vivo half life (in words)” value ([5]; IV, PO, IP)?
**A.** moderate in vivo half life

**Q.** What about the “initial distribution phase (in words)” value ([5]; IV, PO, IP) of the same compound?
**A.** rapid initial distribution phase

**Q.** What about the “bioavailability (in words)” value ([5]; in vivo) of the same compound?
**A.** good bioavailability

**Q.** And the “IL-1β-induced auto-ubiquitination of TRAF6” value [6]?
**A.** reduced TRAF6 auto-ubiquitination

**Q.** What about the “viability of MYD88-dependent ABC-DLBCL” value [7] of the same compound?
**A.** selectively kills ABC-DLBCL with chronic MYD88 signaling; also recorded: significantly reduced viability; also recorded: diminished

**Q.** What about the cell cycle progression [8] of the same compound?
**A.** no effects on cell cycle phases; also recorded: not impaired

**Q.** And the “viability of MYD88 wildtype ABC DLBCL” value [9]?
**A.** only slightly affected; also recorded: not affected

**Q.** What about the “interaction of endogenous Ubc13 with HA-tagged TRAF6 (co-immunoprecipitation)” value [10] of the same compound?
**A.** reduced interaction; also recorded: most active analogs; also recorded: dose-dependently decreases; also recorded: demonstrated inhibition of TRAF6-Ubc13 binding
